# From article PMC7170299, “Design, synthesis, molecular modelling and biological evaluation of novel 3-(2-naphthyl)-1-phenyl-1H-pyrazole derivatives as potent antioxidants and 15-Lipoxygenase inhibitors” (Journal of Enzyme Inhibition and Medicinal Chemistry, 2020)
# Columns and labels:
# [1] = DPPH radical scavenging assay; conditions: mean ± SEM of three experiments; 30 min, 517 nm
# Description: The DPPH scavenging activity of all synthesized compounds was measured as previously described by Nahar et al.[48] with some modifications. Briefly, 100 µL of different concentrations of the tested compounds (12.5, 25, 50, 100, and 200 µg/mL) were pipetted into a 96-well plate. Then, 100 µL of 100-µM DPPH methanolic solution were added to each well and the plate was incubated protected from light at room temperature for 30 min. The absorbance of the solution was measured at λ517 nm.[49] Ascorbic acid was used as the positive control while DMSO was the negative control. The percentage of DPPH scavenging activity was calculated according to the following equation: % of DPPH scavenging=[(Acontrol–Asample)/Acontrol] ×100, where Acontrol is the absorbance of the control reaction (with all reagents except the test compound), and Asample is the absorbance of the test sample. […] All tests were performed in triplicates.
# [2] = NO scavenging assay (sodium nitroprusside / Griess reagent); conditions: for NO IC50: mean ± SEM of three experiments, 90 min, 546 nm
# Description: The NO scavenging activity of all synthesized compounds was measured as previously described by Ho et al.[50] Briefly, 50 µL of different concentrations of the tested compounds (12.5, 25, 50,100, and 200 µg/mL) were pipetted into a 96-well plate. Then, 50 µL of 10-mM sodium nitroprussides dissolved in phosphate-buffered saline PBS (pH 7.4) were added to each well and the plate was incubated for 90 min at room temperature. Next, an equal volume of Griess reagent (1% of sulphanilamide and 0.1% of naphthyl ethylene diamine in 2.5% […]) was added to each well to measure the nitrite content. The absorbance of the formed pink-coloured chromophore was measured at λ 546 nm. DMSO and ascorbic acid were used as the negative and positive control, respectively. All tests were performed in triplicate. The percentage of NO scavenging activity was calculated according to the following equation: % of NO scavenging=[(Acontrol−Asample)/Acontrol]×100 where Acontrol is the absorbance of the control reaction (with all reagents except the test compound), and Asample is the absorbance of the test sample.
# [3] = Superoxide scavenging assay (pyrogallol autoxidation); conditions: mean ± SEM of three experiments; pyrogallol autoxidation, 325 nm
# Description: The improved pyrogallol autoxidation method was used to determine O2^−. RSA of all synthesized compounds as previously described. Briefly, 50 µL of test compounds (12.5, 25, 50,100, and 200 µg/mL) was added to 2900 µl of […] Tris HCl buffer (0.05 M, pH 7.4) containing 1-mM Na2EDTA. Next, 50 µL of 60-mM pyrogallol in1mM HCl had been thoroughly mixed with the mixture. The absorbance of the reaction mixture was measured at A325 nm every 30 s for 5 min. O2^− RSA was expressed by the oxidation degree of a test group in comparison to that of the control. The absorbance at 325 nm was measured against the Tris-HCl buffer every 30 s for 5 min. The percentage of scavenging effect was calculated using the following equation: O2^− radical scavenging %=[(ΔA325, control/T)−(ΔA325nm, sample/T)/ΔA325nm, control/T]×100 where ΔA325 nm, control is the increase in A325 nm of the reaction mixture without the sample and ΔA325 nm, sample is that for the mixture with the sample; T=5 min. The experiments were performed in triplicate.
# Soybean 15-LOX enzyme = target: T1, Soybean 15-LOX enzyme (Glycine max, UniProt P08170); assay: In vitro lipoxygenase inhibition (Cayman lipoxygenase inhibitor screening assay kit); assay type: biochemical; conditions: mean ± SEM of three experiments; substrate arachidonic acid
# T1 construct: purchased Cayman Chemical 760700
# T1 sequence (P08170 1-839): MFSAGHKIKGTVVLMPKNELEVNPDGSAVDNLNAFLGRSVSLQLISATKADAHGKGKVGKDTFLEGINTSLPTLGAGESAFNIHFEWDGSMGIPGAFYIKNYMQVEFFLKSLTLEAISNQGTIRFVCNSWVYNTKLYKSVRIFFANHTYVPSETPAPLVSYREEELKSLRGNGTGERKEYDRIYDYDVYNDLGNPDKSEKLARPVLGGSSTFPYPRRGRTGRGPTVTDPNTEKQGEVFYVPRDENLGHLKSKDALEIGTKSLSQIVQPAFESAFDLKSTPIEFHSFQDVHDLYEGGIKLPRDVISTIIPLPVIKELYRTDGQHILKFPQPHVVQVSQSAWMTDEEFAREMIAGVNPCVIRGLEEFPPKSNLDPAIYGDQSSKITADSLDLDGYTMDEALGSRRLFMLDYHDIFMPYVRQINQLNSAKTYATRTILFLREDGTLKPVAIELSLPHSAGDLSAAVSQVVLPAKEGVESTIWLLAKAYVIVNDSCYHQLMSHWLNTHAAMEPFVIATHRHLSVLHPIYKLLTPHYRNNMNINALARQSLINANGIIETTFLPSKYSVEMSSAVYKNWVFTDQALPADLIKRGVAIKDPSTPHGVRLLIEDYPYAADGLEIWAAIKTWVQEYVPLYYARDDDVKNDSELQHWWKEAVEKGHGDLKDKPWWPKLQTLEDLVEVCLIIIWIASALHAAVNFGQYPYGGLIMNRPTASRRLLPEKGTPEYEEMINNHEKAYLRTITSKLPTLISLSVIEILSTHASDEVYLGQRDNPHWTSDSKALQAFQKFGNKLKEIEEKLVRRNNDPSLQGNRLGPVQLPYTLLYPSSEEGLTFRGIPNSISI
# Description: The assay was performed using Cayman’s lipoxygenase inhibitor screening assay kit (Catalog No. 760700, Cayman Chemical, USA) according to the manufacturer’s instructions. Briefly, 90 µL of 15-LOX was pipetted into a 96-well plate. Next, 10 µL of test compound at concentrations (2.5, 5.0 and 10 µM) dissolved in DMSO were added to each well. The reaction was initiated by adding 10 µL substrate (AA) and the plate was placed on a shaker for at least 5 minutes. Finally, 100 µL of chromogen (prepared according to manufacturer’s instructions) was added to each well to stop enzyme catalysis and develop the reaction. 100 µL of Assay buffer (0.1 M Tris-HCl, pH7.4) was used in blank wells. […] The absorbance of the solution was measured at λ 490–500 nm. The percentage inhibition was calculated according to the following equation: % inhibition =[(IA−Ainhibitor sample)/IA]×100 where (IA) is the 100% initial activity and (Ainhibitor sample) is the absorbance of the test sample. Dose–response curve was plotted between % inhibition and the drug concentration. The non-linear dose–response curve was used for calculating drug concentration showing 50% enzyme inhibition.
DPPH IC50 [1] [µg/mL],NO IC50 [2] [µg/mL],IC50 (Soybean 15-LOX enzyme) [µM],melting point [°C],Structure (SMILES),Superoxide IC50 [3] [µg/mL],NO scavenging potency relative to ascorbic acid ([2]; folds that of ascorbic acid) [folds]
192.70 ± 1.63,>200,2.8 ± 0.06,146 to 147,"Cc1ccc(C(=O)/C=C/c2cn(-c3ccccc3)nc2-c2ccc3ccccc3c2)cc1 [Compound 2c, 3-(3-Naphthalen-2-yl-1-phenyl-1H-pyrazol-4-yl)-1-p-tolyl propenone]",>200,
12.06 ± 1.17,>200,3.77 ± 0.07,187 to 188,"Cc1ccc(C2=NNC(c3cn(-c4ccccc4)nc3-c3ccc4ccccc4c3)C2)cc1 (stereo not drawn) [Compound 3c, 3’-Naphthalen-2-yl-1’-phenyl-5-p-tolyl-3,4-dihydro-2H, 1’H -[3,4’]bipyrazole]",>200,
118.99 ± 1.78,11.04 ± 0.72,4.63 ± 0.09,168 to 169,"O=C(/C=C/c1cn(-c2ccccc2)nc1-c1ccc2ccccc2c1)c1ccc(Cl)c(Cl)c1 [Compound 2e, 1-(3,4-Dichlorophenyl)-3-(3-naphthalen-2-yl-1-phenyl-1H-pyrazol-4-yl)propenone]",>200,3.4
9.63 ± 0.55,175.72 ± 1.41,2.53 ± 0.07,195 to 196,"Clc1ccc(C2=NNC(c3cn(-c4ccccc4)nc3-c3ccc4ccccc4c3)C2)cc1Cl (stereo not drawn) [Compound 3e, 5-(3,4-Dichlorophenyl)-3′-naphthalen-2-yl-1′-phenyl-3,4-dihydro-2H,1’H-[3,4′]-bipyrazole]",129.12 ± 0.82,
>200,148.08 ± 1.36,1.67 ± 0.03,186 to 187,NC(=S)N1N=C(c2ccc(Cl)cc2)CC1c1cn(-c2ccccc2)nc1-c1ccc2ccccc2c1 (stereo not drawn) [Compound 6d],>200,
38.44 ± 1.28,96.56 ± 1.4,3 ± 0.06,187 to 189,"Clc1ccc(C2=NOC(c3cn(-c4ccccc4)nc3-c3ccc4ccccc4c3)C2)cc1Cl (stereo not drawn) [Compound 5e, 3-(3,4-Dichlorophenyl)-5-(3-naphthalen-2-yl-1-phenyl-1H-pyrazol-4-yl)-4,5-dihydro isoxazole]",168.77 ± 1.42,
11.70 ± 0.29,147.95 ± 1.32,4.6 ± 0.06,177 to 178,"COc1ccc(C2=NNC(c3cn(-c4ccccc4)nc3-c3ccc4ccccc4c3)C2)cc1 (stereo not drawn) [Compound 3b, 5-(4-Methoxyphenyl)-3′-naphthalen-2-yl-1′-phenyl-3,4-dihydro-2H,1’H-[3,4′] bipyrazole]",118.65 ± 1.03,
12.02 ± 0.63,198.08 ± 1.28,1.9 ± 0.06,193 to 194,COc1ccc(C2=NN(C(N)=S)C(c3cn(-c4ccccc4)nc3-c3ccc4ccccc4c3)C2)cc1 (stereo not drawn) [Compound 6b],>200,
97.17 ± 1.4,37.5 ± 1.36,5.53 ± 0.07,190 to 191,"c1ccc(C2=NOC(c3cn(-c4ccccc4)nc3-c3ccc4ccccc4c3)C2)cc1 (stereo not drawn) [Compound 5a, 5-(3-Naphthalen-2-yl-1-phenyl-1H-pyrazol-4-yl)-3-phenyl-4,5-dihydro-isoxazole]",192.37 ± 1.74,
182.17 ± 0.99,78.25 ± 1.25,3.13 ± 0.09,187 to 188,"COc1ccc(C(=O)/C=C/c2cn(-c3ccccc3)nc2-c2ccc3ccccc3c2)cc1 [Compound 2b, 1-(4-Methoxyphenyl)-3-(3-naphthalen-2-yl-1-phenyl-1H-pyrazole-4-yl)-propenone]",>200,
34.39 ± 1.03,>200,2.53 ± 0.09,187 to 188,"c1ccc(C2=NN(c3ccccc3)C(c3cn(-c4ccccc4)nc3-c3ccc4ccccc4c3)C2)cc1 (stereo not drawn) [Compound 4a, 3′-Naphthalen-2-yl-2,5,1′-triphenyl-3,4-dihydro-2H,1’H-[3,4′]bipyrazole]",176.14 ± 1.63,
24.42 ± 0.9,179.9 ± 1.31,1.83 ± 0.07,198 to 199,"Cc1ccc(C2=NN(c3ccccc3)C(c3cn(-c4ccccc4)nc3-c3ccc4ccccc4c3)C2)cc1 (stereo not drawn) [Compound 4c, 3′-Naphthalen-2-yl-2,1′-diphenyl-5-p-tolyl-3,4-dihydro-2H, 1’H -[3,4′]bipyrazole]",145.7 ± 1.42,
21.28 ± 1.14,>200,4 ± 0.06,156 to 157,"COc1ccc(C2=NN(c3ccccc3)C(c3cn(-c4ccccc4)nc3-c3ccc4ccccc4c3)C2)cc1 (stereo not drawn) [Compound 4b, 5-(4-Methoxyphenyl)-3′-naphthalen-2-yl-2,1′-diphenyl-3,4-dihydro-2H,1’H-[3,4′] bipyrazole]",65.63 ± 1.46,
